The structures appear in SMILES notation. “Also recorded” adds a separate entry of the source.

Data set [1] can be described thus: toxicity to animals: Lethal Dose-50 given ip to ICR mice. Particulars: mouse, in vivo, ICR mice 20 g, one injection, average of three separate trials, Table 3. The method, then: (§1) The above mentioned thiosemicarbazone compounds were finally powdered and suspended in dimethylsulfoxid (DMSO)-(Merck) to get stock solutions of 10 mg/ml. Stock solutions were diluted to a final volume of 0.25 ml DMSO to obtain the following concentrations: 2,5 mg, 2 mg; […], 1 mg, in 0.25 ml final volume.
(§2) Each drug concentration of the 4 thiosemicarbazone derivatives was injected in a sterile manner intraperitonally (iP) to a group of 10 ICR mice, each weighing 20 g. After one injection the mice were followed for the highest non-lethal dose, and for the lethal dose. The results are an average of three separate trials.

Data set [2] can be described thus: toxicity to animals: highest non-lethal dose given ip to ICR mice. The conditions noted are these: mouse, in vivo. The method, then:
as §1, §2

The test system of data set [3] is Abelson-Moloney murine leukemia virus (Ab-MoMuLV) induced B-lymphoma. Description: antiviral effect in mice against B-lymphoma induced by Ab-MoMuLV. The data set is classed as in vivo. Particulars: daily dose of 2 μg/4 g weight for 10 consecutive days, immediately after infection, versus untreated mice. The method, then:
One of the three compounds, namely M-IBDET was examined as to its efficacy against the Abelson-Moloney murine leukemia virus (Ab-MoMuLV). Injection of susceptible mice with B-cell lymphocytes infected with Ab-MoMuLV usually results in induction of B-type lymphoma within 3 weeks. Treatment of mice immediately after infection with MoMuLV infected cells with M-IBDET at a daily dose of 2 μg/4 g weight for 10 consecutive days caused a delay of 3 weeks in the appearance of the lymphoma in the drug-treated mice as compared with untreated mice.

For a further data set, the system named is Moloney leukemia virus. The conditions noted are these: literature refs (1-3); cited from earlier work.
The test system of another data set is EIAV. The data set can be described thus: inhibition of EIAV production in chronically infected fibroblast cells. Particulars: 2 hrs then 1:10 dilution, further 24 hours. The data set is classed as cell-based. The method, then:
Fibroblast cells of […] chronically infected with EIAV were incubated for 2 hrs with concentrations ranging from 17 μM to 34 μM of the described thiosemicarbazone compounds. Subsequently the medium was diluted 1:10 to obtain a final concentration of ranging from 1.7 to 3.4 μM. The cultures were further incubated for 24 hours and virus production was assayed in drug-treated and untreated cells. The extent of inhibition of virus production in the treated cultures was 70-80%. M-IBT was tested and found to be ineffective.

Data set [4] deals with viruses belonging to the Retroviridae family. Description: inhibition of virus production of Retroviridae in infected cells (summary). Particulars: tested by applicant. The data set is classed as cell-based. The method, then: The thiosemicarbazone compounds described in this invention, were found by us to be specific inhibitors of viruses belonging to the Retroviridae family. Results obtained in our laboratory indicate that amounts ranging from 17 μM to 34 μM of the thiosemicarbazones suppressed specifically the production of viruses belonging to the Retroviridae family. The extent of inhibition of virus production in the infected cells was 75-85%. This inhibition was confirmed by various parameters of virus assay such as: reverse transcriptase activity, virus infectivity and contents of viral structural proteins.

For data set [5], the system named is human immunodeficiency virus--HIV. Description: inhibition of HIV production in chronically infected H9 and HuT-78 cell lines. The conditions noted are these: evaluated in a similar manner (2 hrs, then 1:10 dilution, 24 hrs). It counts as cell-based, human cell lines. The method, then:
The thiosemicarbazone compounds were examined for their inhibitory effect on the human immunodeficiency virus--HIV in the following chronically infected cell lines:
H9 cell line--A human established T-cell line chronically infected with HIV;
HuT-78 cell line--A human cell line chronically infected with ARV2 (HIV).
concentrations of 5×10^6 cells per ml were incubated with 17-34 μM of the different thiosemicarbazones. Virus production was assayed in the drug-treated and untreated cells after 7 hrs of exposure. An 85% inhibition of virus production was found in the drug-treated cultures as compared to control untreated cultures. Virus production was determined by assaying various virus parameters such as reverse transcriptase activity, plaque forming units (PFU) and viral structtural protein content.
The compounds were also tested by employing a different way of treatment of the HIV infected cultures: 5×10^6 infected cells were incubated with 17-34 μM of the drug for 2 hrs. Subsequently a dilution of 1:10 of the medium was performed to final concentration of 1.7-3.4 μM of the drug. The cultures were further incubated for 24 hrs in diluted medium and virus production was assayed. The extent of inhibition of HIV production achieved by the described treatment was 75-85%. M-IBT was evaluated in a similar manner.

For data set [6], the system named is pox-virus family (smallpox). Particulars: oral, 40 mg/kg for 4 consecutive days; cited from earlier work.
Data set [7] relates to viruses listed in Table I. It counts as cell-based, Mouse, Avian, Human cells. The conditions noted are these: 34 μM, 18 hrs (such conditions of treatment).
Setting [8] is: ICR mice 20 g, one injection, average of three separate trials, Table 2.

`C=CCN1C(=O)C(=NNC(=S)N(CC)CC)c2ccccc21` [A-IBDET, 1-allylisatin-β-4':4'-diethylthiosemicarbazone]: in [1], the LD50 – broadly, the dose expected to kill half of the subjects tested – was determined as 175 mg/kg. In data set [2] (setting [8]), the MTD amounted to 100 mg/kg.

Compound `C=CCN1C(=O)C(=NNC(=S)N(C)C)c2ccccc21` [A-IBDMT, 1-allylisatin-β-4':4'-dimethylthiosemicarbazone] showed an LD50 in data set [1] of 175 mg/kg. The compound also returned an MTD in data set [2] (setting [8]) of 100 mg/kg.

As to `CCN(CC)C(=S)NN=C1C(=O)N(C)c2ccccc21` [M-IBDET, 1-methylisatin-β-4':4'-diethylthiosemicarbazone], the “delay in the appearance of the lymphoma” value in [3] is 3 weeks. The LD50 in [1] came out at 125 mg/kg. In addition, in data set [2] (setting [8]), the MTD came out at 50 mg/kg. In addition, the “inhibition of production of Moloney leukemia virus” value in the data set with Moloney leukemia virus is on record as “inhibits the production of Moloney leukemia virus”.

In the case of `CN1C(=O)C(=NNC(N)=S)c2ccccc21` [M-IBT, N-methylisatine 3-thiosemicarbazone], the “effectiveness against EIAV” value in the data set on EIAV was “ineffective”. Moreover, the “effectiveness against viruses of the Retroviridae” value in data set [4] is recorded as “ineffective”. Besides, the “inhibition of HIV production” value in [5] is given as “No inhibition could be detected”. For the same compound, the LD50 in data set [1] was 125 mg/kg. The compound also displayed an MTD in data set [2] (ICR mice 20 g-weight) of 50 mg/kg. The “clinical effectiveness against pox virus / smallpox” value in data set [6] is reported as “effective in the treatment of humans against smallpox; also recorded: effective against subjects known to have contact with smallpox; also recorded: effective results; also recorded: clinically effective”. In data set [7], the “effectiveness on virus infectivity” value was “not effective”.

The record behind these values is patent US4927843A (priority 1986, dated 1990).
